PMC3985765 (Biochemistry, 2014)

Molecular target: T1, FlK (fluoroacetyl-CoA thioesterase) (Streptantibioticus cattleyicolor, UniProt Q1EMV2)
T1 sequence (Q1EMV2 1-139): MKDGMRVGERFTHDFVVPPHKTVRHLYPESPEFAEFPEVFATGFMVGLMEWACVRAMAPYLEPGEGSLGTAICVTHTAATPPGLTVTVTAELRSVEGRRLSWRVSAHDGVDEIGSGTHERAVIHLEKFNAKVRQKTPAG
Assay: pre-steady-state rapid chemical quench, HPLC of CoA release
Assay type: biochemical
Conditions: Bis-Tris 100 mM pH 6.0; covalent acyl-enzyme on Glu 50

CC(C)(COP(=O)(O)OP(=O)(O)OC[C@H]1O[C@@H](n2cnc3c(N)ncnc32)[C@H](O)[C@@H]1OP(=O)(O)O)[C@@H](O)C(=O)NCCC(=O)NCCSC(=O)CF [fluoroacetyl-CoA]
pre-steady-state rapid chemical quench, HPLC of CoA release: we observed a burst phase of product formation consistent with enzyme acylation
